Source: article PMC6630718, “Discovery of Novel UV-Filters with Favorable Safety Profiles in the 5-Arylideneimidazolidine-2,4-dione Derivatives Group” (Molecules, 2019)

Experiments:
[1] = Photostability in macrogol formulations on PMMA plates (solar light simulator); assay type: physicochemical; details: for new photoproduct (besides photoisomer), relative peak area: post-irradiation chromatogram
Protocol: After irradiation of thin layer of formulations applied on PMMA plates, their photoprotective parameters were determined and compared with the pre-irradiation results. The study gives an overview on functional photostability of the tested compounds. It is an important test, because the photostability of some compounds in low concentrated solutions may meaningfully differ from results obtained for higher concentrations used in sunscreen products. […] In the present study both UVB and UVA-absorbers were tested, so the changes in SPFin vitro, UVA PF and AUC after irradiation are taken into account as a measure of photostability.
(§1) The photostability evaluation of compounds was performed both in methanol solutions and in macrogol formulations. Irradiation of samples according to previous studies was conducted for 1 h at 500 W/m^2 (cumulative dose of ultraviolet radiation 218 kJ/m^2) with solar light simulator (Suntest CPS+, Atlas, Linsengericht, Germany) equipped with an optical filter cutting off wavelengths shorter than 290 nm and IR-block filter to neutralize thermal effects. The UV absorption spectrum of the samples were analysed post-irradiation and compared with pre-irradiation results. UPLC-MS/MS analyses were also performed.
(§2) Methanol solutions were tested at concentration 25 or 50 µM in quartz cuvettes with the PTFE stopper to prevent evaporation or leaking of the solvent. Macrogol formulations (2% w/w) were tested on PMMA plates (1.3 mg/cm^2). After post-irradiation measure of UV absorption, exposed and unexposed plates were washed with 5 mL of methanol, then mixtures were filtered and analysed by UPLC-MS/MS. All analyses were performed in duplicates.

[2] = In vitro photoprotection study of 2% (w/w) macrogol formulations on PMMA plates
Source text: The composition of formulations and concentration of tested compounds were based on their limited solubility. N-monosubstituted compounds 2a–2e were insoluble at desirable concentrations in the typical solvents used in cosmetic formulations such as alcohols, triacetin, surfactants, and co-surfactants. To dissolve compounds 2a and 2b before incorporation to the formulation DMSO: Tween 20 (1:9 w/w) was used, for less soluble 2c–2e it was necessary to use DMSO alone as solvent. […] Thus the detailed composition of the formulations is as follows: F1–Tween 20 43.2%, PEG-400 25%, PEG-1500 25%, Triacetin 4.8%, tested compound 2%; F2–Tween 20 43.2%, PEG-400 25%, PEG-1500 25%, DMSO 4.8%, tested compound 2%; F3–PEG-400 25%, PEG-1500 25%, DMSO 48%, tested compound 2%. Considering the disadvantages of currently reported macrogol formulations and the low concentration achieved for the tested compounds (2%), we plan to work on cosmetic emulsions containing the most promising derivatives at higher concentrations as well as required excipients including preservatives, antioxidants, etc. This research will be carried out in the near future.
Tested compounds and commercial UV filters as reference standards were incorporated to a neutral macrogel formulation in the concentration of 2%. Prior to the incorporation, compounds 3a–3e and 4f–4h and reference UV-filters were dissolved in a triacetin:Tween 20 (1:9) solvent system. For compounds 2a–2e it was necessary to use DMSO. The final composition of the macrogol formulations is presented in the photoprotective activity section.
In vitro photoprotection study was performed according to EN ISO 24443:2012 [71] with slight modifications. Formulation with tested compound (32.5 mg) was applied on a polymethylmethacrylate plate (PMMA) with the application area 25 cm^2 and 5 µm roughness value to simulate the skin surface (Schonberg GmbH, Hamburg, Germany). As a reference a PMMA plate treated with approximately 15 µL of glycerin was used. Measurements were carried out by reflectance spectrophotometry with SPF-290AS Analyser (Solar Light Company, Glenside, PA, USA) equipped with integrating sphere controlled by WinSPF version X.X. software. For each sample two plates were prepared, absorbance measures were performed on 6 different positions of the plate from 290 to 400 nm with 1 nm steps. The results were expressed as an average of data from 12 scans.

[3] = Photostability in methanol solutions (solar light simulator); assay type: physicochemical; parameters: λmax pre-irradiation: unit not given beside the values; details: methanol solution; for % of initial AUC post-irradiation / λmax post-irradiation: 1h irradiation at 500 W/m2
Protocol: as §1, §2

[4] = Ultraviolet spectroscopy in methanol solutions; assay type: physicochemical; details: for Absorption Range: scan range 290–400 nm
Protocol: Spectra with a scan range of 290–400 nm were recorded in 50 or 25 μM methanol solutions, in 1 cm path length, 1.5 mL quartz cuvettes on a U-2800 double beam spectrophotometer (Hitachi, Tokyo, Japan) controlled by UV Solution version 2.2 software. The molar extinction coefficient at maximum absorption (εmax) of tested compounds was determined in methanol as the slope of the linear regression of absorbance vs. concentration of tested compound (from 10 to 50 μM or 2.5 to 30 μM).

[5] = after 1 h irradiation at 500 W/m^2, formulation F2 (DMSO 4.8%)
[6] = after 1 h irradiation at 500 W/m^2, formulation F3 (DMSO 48%)
[7] = 2% (w/w) macrogol formulation F2 (DMSO 4.8%)
[8] = after 1 h irradiation at 500 W/m^2, formulation F1
[9] = 2% (w/w) macrogol formulation F1 (Triacetin 4.8%)
[10] = 2% (w/w) macrogol formulation F1 (Tween 20, PEG-400, PEG-1500, Triacetin 4.8%)

Row | SMILES | melting point | λmax pre-irradiation [3] | % of initial AUC post-irradiation [3] | λmax post-irradiation [3] | εmax [4] | λmax [4] | Absorption Range [4] | % of Initial AUC [1, 8] | % of Initial SPFin vitro [1, 8] | % of Initial UVA PF [1, 8] | UVA PF [2, 9] | UVA/UVB Ratio [2, 9] | λc (critical wavelength) [2, 9] | SPFin vitro [2, 10] | new photoproduct (besides photoisomer), relative peak area ([1]; macrogol formulation) | further results
1 | CCOC(=O)CN1C(=O)N/C(=C\c2ccc(OC)cc2)C1=O [Compound 2b, Ethyl (Z)-2-(4-(4-methoxybenzylidene)-2,5-dioxoimidazolidin-1-yl)acetate] | 178 to 179 °C | 334 | 95.67% | 341 | 31920 M⁻¹ cm⁻¹ | 334 nm | 290–372 nm | – | – | – | – | – | – | – | – | improvement of the functional photostability ([1]; DMSO in formulation reduced from 48 to 4.8%): 30.2%; % of Initial AUC [1, 5]: 59.55%; % of Initial SPFin vitro [1, 5]: 57.19%; % of Initial UVA PF [1, 5]: 54.31%; % of Initial AUC [1, 6]: 35.28%; % of Initial SPFin vitro [1, 6]: 36.51%; % of Initial UVA PF [1, 6]: 24.13%; decrease of tested parameters (SPFin vitro, UVA PF, AUC) after irradiation ([1]; formulation with DMSO 48% (F3), extreme values): 75.9%; SPFin vitro [2, 7]: 3.20 ± 0.07; UVA PF [2, 7]: 4.29 ± 0.11; UVA/UVB Ratio [2, 7]: 1.20 ± 0.00; λc (critical wavelength) [2, 7]: 363 nm
2 | CCOC(=O)CN1C(=O)/C(=C/c2ccccc2)N(CC(=O)OCC)C1=O [Compound 3a, Diethyl 2,2′-((Z)-4-benzylidene-2,5-dioxoimidazolidine-1,3-diyl)diacetate] | 47 to 49 °C | 295 | 122.34% | 301 | 13980 M⁻¹ cm⁻¹ | 295 nm | 290–335 nm | 88.19% | 83.31% | 103.50% | 1.29 ± 0.09 | 0.16 ± 0.02 | 331 nm | 2.97 ± 0.45 | – | hypsochromic shift of λmax compared to N-monosubstituted derivatives [4]: 21 nm
3 | CCOC(=O)CN1C(=O)/C(=C/c2ccc(OCC)cc2)N(CC(=O)OCC)C1=O [Compound 3c, Diethyl 2,2′-((Z)-4-(4-ethoxybenzylidene)-2,5-dioxoimidazolidine-1,3-diyl)diacetate] | 44 to 46 °C | 321 | 119.42% | 329 | 17010 M⁻¹ cm⁻¹ | 321 nm | 290–367 nm | 85.29% | 88.73% | 86.59% | 2.46 ± 0.01 | 1.05 ± 0.03 | 370 nm | 2.49 ± 0.08 | 2.8% | –
4 | CCOC(=O)CN1C(=O)/C(=C/c2ccc(OC)cc2OC)N(CC(=O)OCC)C1=O [Compound 3d, Diethyl 2,2′-((Z)-4-(2,4-dimethoxybenzylidene)-2,5-dioxoimidazolidine-1,3-diyl)diacetate] | 88 to 90 °C | 333 | 111.55% | 342 | 17310 M⁻¹ cm⁻¹ | 333 nm | 290–374 nm | 94.01% | 89.92% | 97.66% | 2.35 ± 0.03 | 1.63 ± 0.01 | 383 nm | 1.84 ± 0.02 | no additional peaks besides the photoisomer | –
5 | CCOC(=O)CN1C(=O)/C(=C/c2ccc(OC)c(OC)c2)N(CC(=O)OCC)C1=O [Compound 3e, Diethyl 2,2′-((Z)-4-(3,4-dimethoxybenzylidene)-2,5-dioxoimidazolidine-1,3-diyl)diacetate] | 80 to 82 °C | 329 | 129.32% | 340 | 14200 M⁻¹ cm⁻¹ | 329 nm | 290–380 nm | 79.59% | 81.28% | 87.10% | 2.17 ± 0.11 | 1.43 ± 0.02 | 382 nm | 1.87 ± 0.08 | – | –
6 | CCOC(=O)CN1C(=O)/C(=C/C=C/c2ccccc2)N(CC(=O)OCC)C1=O [Compound 4f, Diethyl 2,2′-((Z)-2,4-dioxo-5-((E)-3-phenylallylidene)imidazolidyne-1,3-diyl)diacetate] | 99 to 100 °C | 354 | 59.12% | 354 | 41477 M⁻¹ cm⁻¹ | 354 nm | 295–389 nm | 27.92% | 62.24% | 25.98% | 8.43 ± 1.35 | 2.58 ± 0.06 | 381 nm | 2.51 ± 0.17 | – | photostability (in words) ([1]; macrogol formulation): unsatisfactory; decrease of AUC after irradiation ([1]; macrogol formulation F1): 72.1%; percentage of photoproducts content ([1]; macrogol formulation, post-irradiation chromatograms): 22.9%; decrease of AUC after irradiation [3]: 40.9%
